Each structure is given as a SMILES string.

In this assay the test system is T1, urease.
T1 construct: gene jack bean urease
Particulars: 100 mM urea, room temperature, 10 min; reference inhibitor.

As to `NC(N)=S` [Thiourea], the “Urease IC50” value amounted to 24.5 ± 0.7 µg/mL.
